The data set can be described thus: recombinant UMI read abundance after kanamycin selection (control-corrected) (log10(CPM+1)); higher = more efficient recombination; extreme values may be limits of the assay; sequences stand for … in AGTGCAGAGAAAATCGGCCAGTTTTCTCTGCCTGCAGTCCGCATGCCGTGGGACCCCTTGGGTTCTAACCTGTTGCCTAGATTTATGCAGCGGACTGCCTTTCTCCCAAAGTGATAAACCGG…AGGTTGGTTTCACT; site = the 11-nt donor. The method in brief: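 The measure is log10(CPM+1) for recombinant UMIs. These were PCR-amplified across the donor–target junction and sequenced after Escherichia coli carrying a donor and donor-binding-loop pair library and a target plasmid with T7-inducible IS621 bridge recombinase was plated on IPTG (0.07 mM) plus kanamycin or unselected. CPM were averaged over two replicates and scaled by control-derived factors.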
In the case of “AGTAGTGCATGGACCGGTTTTCCCGGTAATCCGTATTTGGT (site AGTAGTGCTAC)”, the “recombinant UMI read abundance (log10)” value was 1.3.
Then “AGTAGTGCATGGACCGGTTTTCCCGGTAATCCGTATTTGGT (site ATTAGTGCTAC)”, with 0.00696.
As for “AGTATTTCATGGACCGGTTTTCCCGGTAATCCGTATTTGAG (site AGTATTTCTCT)”, the figure is 1.39.
For “AGTCAGACATGGACCGGTTTTCCCGGTAATCCGTATTTGGC (site AGTCAGACTGC)”, the “recombinant UMI read abundance (log10)” value stood at 2.34.
Then “AGTCCGACATGGACCGGTTTTCCCGGTAATCCGTATTTGTC (site AGTCCGACTGA)”, with 0.624.
Then “AGTCGTACATGGACCGGTTTTCCCGGTAATCCGTATTTGGA (site AGTCGTACTTC)”, with 0.529; and “AGTCTGGCATGGACCGGTTTTCCCGGTAATCCGTATTTGAA (site AGTCTGGCTTT)”, with 1.19; and “AGTCTTACATGGACCGGTTTTCCCGGTAATCCGTATTTGGT (site AGTCTTACTAC)”, with 1.14.
Regarding “AGTGCCGCATGGACCGGTTTTCCCGGTAATCCGTATTTGGG (site AGTGCCGCTCC)”, the “recombinant UMI read abundance (log10)” value was 0.025.
As for “AGTGTAACATGGACCGGTTTTCCCGGTAATCCGTATTTGCT (site AATGTAACTAG)”, the “recombinant UMI read abundance (log10)” value is 1.36.
Consider “AGTGTAACATGGACCGGTTTTCCCGGTAATCCGTATTTGCT (site ACTGTAACTAG)”, for which the “recombinant UMI read abundance (log10)” value was found to be 1.47.
Then “AGTGTAACATGGACCGGTTTTCCCGGTAATCCGTATTTGCT (site AGTGTAACTAG)”, with 1.94.
On to “AGTGTAACATGGACCGGTTTTCCCGGTAATCCGTATTTGCT (site ATTGTAACTAG)”, for which the “recombinant UMI read abundance (log10)” value stood at 1.12.
For the sequence “AGTGTCTCATGGACCGGTTTTCCCGGTAATCCGTATTTGAG (site AGTGTCTCTCT)”, the “recombinant UMI read abundance (log10)” value was 1.2.
As for “AGTTAGGCATGGACCGGTTTTCCCGGTAATCCGTATTTGGA (site AGTTAGGCTTC)”, the figure is 0.957.
With “AGTTCAGCATGGACCGGTTTTCCCGGTAATCCGTATTTGAT (site AGTTCAGCTAT)”, the “recombinant UMI read abundance (log10)” value came out at 1.05.
Then “AGTTCCTCATGGACCGGTTTTCCCGGTAATCCGTATTTGCA (site AGTTCCTCTTG)”, with 2.47; and “AGTTCGACATGGACCGGTTTTCCCGGTAATCCGTATTTGAC (site AGTTCGACTGT)”, with 0.845; and “AGTTGATCATGGACCGGTTTTCCCGGTAATCCGTATTTGAC (site AGTTGATCTGT)”, with 1.28.
Then “AGTTGCTCATGGACCGGTTTTCCCGGTAATCCGTATTTGAA (site AGTTGCTCTTT)”, with 0.47; and “AGTTGGCCATGGACCGGTTTTCCCGGTAATCCGTATTTGGG (site AGTTGGCCTCC)”, with 0.0248.
Consider “AGTTGTTCATGGACCGGTTTTCCCGGTAATCCGTATTTGTT (site AGTTGTTCTAA)”, for which the “recombinant UMI read abundance (log10)” value worked out at 0.233.
As for “AGTTTCCCATGGACCGGTTTTCCCGGTAATCCGTATTTGTG (site AGATTCCCTCA)”, the figure is 0.0216; as for “AGTTTCCCATGGACCGGTTTTCCCGGTAATCCGTATTTGTG (site AGCTTCCCTCA)”, 0.0227; as for “AGTTTCCCATGGACCGGTTTTCCCGGTAATCCGTATTTGTG (site AGGTTCCCTCA)”, 0.0056.
In the case of “AGTTTCCCATGGACCGGTTTTCCCGGTAATCCGTATTTGTG (site AGTTTCCCTCA)”, the “recombinant UMI read abundance (log10)” value was 0.0252.
Take “AGTTTGCCATGGACCGGTTTTCCCGGTAATCCGTATTTGAA (site AGTTTGCCTTT)”: the “recombinant UMI read abundance (log10)” value was 0.00758.
As for “ATAAACCCATGGACCGGTTTTCCCGGTAATCCGTATTTGAT (site ATAAACCCTAT)”, the figure is 1.19; as for “ATAAACTCATGGACCGGTTTTCCCGGTAATCCGTATTTGCG (site ATAAACTCTCG)”, 3.23.
As for “ATAAAGGCATGGACCGGTTTTCCCGGTAATCCGTATTTGCT (site AAAAAGGCTAG)”, the figure is 0.238.
Regarding “ATAAAGGCATGGACCGGTTTTCCCGGTAATCCGTATTTGCT (site ACAAAGGCTAG)”, the “recombinant UMI read abundance (log10)” value turned out to be 1.63.
For the sequence “ATAAAGGCATGGACCGGTTTTCCCGGTAATCCGTATTTGCT (site AGAAAGGCTAG)”, the “recombinant UMI read abundance (log10)” value was determined as 0.349.
As for “ATAAAGGCATGGACCGGTTTTCCCGGTAATCCGTATTTGCT (site ATAAAGGCTAG)”, the figure is 2.75.
Then “ATAACGCCATGGACCGGTTTTCCCGGTAATCCGTATTTGAG (site ATAACGCCTCT)”, with 0.00694; and “ATAACGCCATGGACCGGTTTTCCCGGTAATCCGTATTTGTC (site ATAACGCCTGA)”, with 1.58; and “ATAAGGCCATGGACCGGTTTTCCCGGTAATCCGTATTTGAA (site ATAAGGCCTAT)”, with 0.00331.
As for “ATAAGGCCATGGACCGGTTTTCCCGGTAATCCGTATTTGAA (site ATAAGGCCTCT)”, the figure is 0.0201.
Take “ATAAGGCCATGGACCGGTTTTCCCGGTAATCCGTATTTGAA (site ATAAGGCCTGT)”: the “recombinant UMI read abundance (log10)” value is 0.
Then “ATAAGGCCATGGACCGGTTTTCCCGGTAATCCGTATTTGAA (site ATAAGGCCTTT)”, with 0.404; and “ATAAGGCCATGGACCGGTTTTCCCGGTAATCCGTATTTGAG (site ATAAGGCCTAT)”, with 0.00358.
For “ATAAGGCCATGGACCGGTTTTCCCGGTAATCCGTATTTGAG (site ATAAGGCCTCT)”, the “recombinant UMI read abundance (log10)” value was found to be 0.325.
As for “ATAAGGCCATGGACCGGTTTTCCCGGTAATCCGTATTTGAG (site ATAAGGCCTGT)”, the figure is 0; as for “ATAAGGCCATGGACCGGTTTTCCCGGTAATCCGTATTTGAG (site ATAAGGCCTTT)”, 0.025.
Then “ATAAGGGCATGGACCGGTTTTCCCGGTAATCCGTATTTGAC (site ATAAGGACTGT)”, with 2.61; and “ATAAGGGCATGGACCGGTTTTCCCGGTAATCCGTATTTGAC (site ATAAGGCCTGT)”, with 0.00415; and “ATAAGGGCATGGACCGGTTTTCCCGGTAATCCGTATTTGAC (site ATAAGGGCTGT)”, with 2.79.
As for “ATAAGGGCATGGACCGGTTTTCCCGGTAATCCGTATTTGAC (site ATAAGGTCTGT)”, the figure is 2.53; as for “ATAAGGTCATGGACCGGTTTTCCCGGTAATCCGTATTTGAC (site ATAAGGACTGT)”, 1.91; as for “ATAAGGTCATGGACCGGTTTTCCCGGTAATCCGTATTTGAC (site ATAAGGCCTGT)”, 1.04.
On to “ATAAGGTCATGGACCGGTTTTCCCGGTAATCCGTATTTGAC (site ATAAGGGCTGT)”, for which the “recombinant UMI read abundance (log10)” value turned out to be 0.526.
As for “ATAAGGTCATGGACCGGTTTTCCCGGTAATCCGTATTTGAC (site ATAAGGTCTGT)”, the figure is 3.4.
Consider “ATACACACATGGACCGGTTTTCCCGGTAATCCGTATTTGGG (site ATACACACTCC)”, for which the “recombinant UMI read abundance (log10)” value came to 0.537.

The record behind these values is the supplement of paper PMC11208160.
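Also: IS621 bridge recombinase in Escherichia coli cells against a fixed T5 target plasmid.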
